# The supplement of paper PMC10307832
# Assays:
# Assay in all cases: relative viability (nuclei count vs DMSO), 5 days (fraction); higher = more cells survive
# [1] = system: NCI-H460
# Summary of the method: (§1)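 Lung cancer cell lines in 1536-well plates were dosed by pin tool the day after seeding, either with one drug alone or with a fixed anchor-drug dose plus five library-drug doses (not always all listed) in √10 steps. After 5 days, cells were fixed and their nuclei stained in one step (final 0.05% Triton X-100, 1% formaldehyde, 1 ug/ml Hoechst), then counted on 4× images. Relative viability is the nuclei count in treated wells divided by that in vehicle wells. Values are medians of duplicate plates.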
# [2] = system: NCI-H2009
# Summary of the method: as §1
# [3] = system: A549
# Summary of the method: as §1
# [4] = system: NCI-H358
# Summary of the method: as §1
# [5] = system: NCI-H661
# Summary of the method: as §1
# [6] = system: NCI-H1703
# Summary of the method: as §1
# [7] = system: HCC-78
# Summary of the method: as §1
# [8] = system: IA-LM
# Summary of the method: as §1
# [9] = system: EBC-1
# Summary of the method: as §1
# [10] = system: Calu-6
# Summary of the method: as §1
# [11] = system: NCI-H1299
# Summary of the method: as §1
smiles,measurement,setting,value
COc1cc2nccc(Oc3ccc(NC(=O)Nc4cc(C)on4)c(Cl)c3)c2cc1OC [Tivozanib] + C[C@]1(O)C[C@@H](c2nc(-c3ccc4ccc(-c5ccccc5)nc4c3)c3c(N)nccn32)C1 [Linsitinib] (partner 1 µM),relative viability,[1]; first compound 0.005 µM,0.783
same,relative viability,[1]; first compound 0.01581 µM,0.806
same,relative viability,[1]; first compound 0.05 µM,0.858
same,relative viability,[1]; first compound 0.1581 µM,0.871
same,relative viability,[1]; first compound 0.5 µM,0.733
same,relative viability,[2]; first compound 0.005 µM,1.15
same,relative viability,[2]; first compound 0.01581 µM,1.19
same,relative viability,[2]; first compound 0.05 µM,1.23
same,relative viability,[2]; first compound 0.1581 µM,1.25
same,relative viability,[2]; first compound 0.5 µM,1.23
same,relative viability,[3]; first compound 0.005 µM,0.52
same,relative viability,[3]; first compound 0.01581 µM,0.606
same,relative viability,[3]; first compound 0.05 µM,0.625
same,relative viability,[3]; first compound 0.1581 µM,0.635
same,relative viability,[3]; first compound 0.5 µM,0.656
same,relative viability,[4]; first compound 0.005 µM,0.765
same,relative viability,[4]; first compound 0.01581 µM,0.849
same,relative viability,[4]; first compound 0.05 µM,0.718
same,relative viability,[4]; first compound 0.1581 µM,0.695
same,relative viability,[4]; first compound 0.5 µM,0.782
same,relative viability,[5]; first compound 0.005 µM,0.525
same,relative viability,[5]; first compound 0.01581 µM,0.564
same,relative viability,[5]; first compound 0.05 µM,0.498
same,relative viability,[5]; first compound 0.1581 µM,0.707
same,relative viability,[5]; first compound 0.5 µM,0.652
same,relative viability,[6]; first compound 0.005 µM,0.402
same,relative viability,[6]; first compound 0.01581 µM,0.254
same,relative viability,[6]; first compound 0.05 µM,0.167
same,relative viability,[6]; first compound 0.1581 µM,0.158
same,relative viability,[6]; first compound 0.5 µM,0.283
same,relative viability,[7]; first compound 0.005 µM,0.53
same,relative viability,[7]; first compound 0.01581 µM,0.492
same,relative viability,[7]; first compound 0.05 µM,0.437
same,relative viability,[7]; first compound 0.1581 µM,0.415
same,relative viability,[7]; first compound 0.5 µM,0.451
same,relative viability,[8]; first compound 0.005 µM,0.526
same,relative viability,[8]; first compound 0.01581 µM,0.508
same,relative viability,[8]; first compound 0.05 µM,0.573
same,relative viability,[8]; first compound 0.1581 µM,0.467
same,relative viability,[8]; first compound 0.5 µM,0.511
same,relative viability,[9]; first compound 0.005 µM,0.86
same,relative viability,[9]; first compound 0.01581 µM,0.898
same,relative viability,[9]; first compound 0.05 µM,0.909
same,relative viability,[9]; first compound 0.1581 µM,0.762
same,relative viability,[9]; first compound 0.5 µM,0.887
same,relative viability,[10]; first compound 0.005 µM,0.89
same,relative viability,[10]; first compound 0.01581 µM,0.941
same,relative viability,[10]; first compound 0.05 µM,0.894
same,relative viability,[10]; first compound 0.1581 µM,0.915
same,relative viability,[10]; first compound 0.5 µM,0.83
same,relative viability,[11]; first compound 0.005 µM,0.956
same,relative viability,[11]; first compound 0.01581 µM,0.981
same,relative viability,[11]; first compound 0.05 µM,0.981
same,relative viability,[11]; first compound 0.1581 µM,0.998
same,relative viability,[11]; first compound 0.5 µM,0.841
Cc1sc2c(c1C)C(c1ccc(Cl)cc1)=N[C@@H](CC(=O)OC(C)(C)C)c1nnc(C)n1-2 [JQ1] + CC(C)C[C@H](NC(=O)[C@H](Cc1ccccc1)NC(=O)c1cnccn1)B(O)O [Bortezomib] (partner 0.002 µM),relative viability,[1]; first compound 0.04 µM,1.05
same,relative viability,[1]; first compound 0.1265 µM,0.611
same,relative viability,[1]; first compound 0.4 µM,0.456
same,relative viability,[1]; first compound 1.265 µM,0.224
same,relative viability,[1]; first compound 4 µM,0.212
same,relative viability,[2]; first compound 0.04 µM,0.947
same,relative viability,[2]; first compound 0.1265 µM,0.526
same,relative viability,[2]; first compound 0.4 µM,0.262
same,relative viability,[2]; first compound 1.265 µM,0.172
same,relative viability,[2]; first compound 4 µM,0.197
same,relative viability,[5]; first compound 0.04 µM,0.783
same,relative viability,[5]; first compound 0.1265 µM,0.83
same,relative viability,[5]; first compound 0.4 µM,0.576
same,relative viability,[5]; first compound 1.265 µM,0.431
same,relative viability,[5]; first compound 4 µM,0.537
same,relative viability,[6]; first compound 0.04 µM,0.248
same,relative viability,[6]; first compound 0.1265 µM,0.206
same,relative viability,[6]; first compound 0.4 µM,0.19
same,relative viability,[6]; first compound 1.265 µM,0.122
same,relative viability,[6]; first compound 4 µM,0.102
same,relative viability,[7]; first compound 0.04 µM,0.53
same,relative viability,[7]; first compound 0.1265 µM,0.453
same,relative viability,[7]; first compound 0.4 µM,0.231
same,relative viability,[7]; first compound 1.265 µM,0.19
same,relative viability,[7]; first compound 4 µM,0.172
same,relative viability,[8]; first compound 0.04 µM,0.643
same,relative viability,[8]; first compound 0.1265 µM,0.428
same,relative viability,[8]; first compound 0.4 µM,0.0917
same,relative viability,[8]; first compound 1.265 µM,0.0837
same,relative viability,[8]; first compound 4 µM,0.0676
same,relative viability,[9]; first compound 0.04 µM,0.451
same,relative viability,[9]; first compound 0.1265 µM,0.245
same,relative viability,[9]; first compound 0.4 µM,0.219
same,relative viability,[9]; first compound 1.265 µM,0.168
same,relative viability,[9]; first compound 4 µM,0.19
same,relative viability,[10]; first compound 0.04 µM,1.04
same,relative viability,[10]; first compound 0.1265 µM,0.931
same,relative viability,[10]; first compound 0.4 µM,0.815
same,relative viability,[10]; first compound 1.265 µM,0.663
same,relative viability,[10]; first compound 4 µM,0.391
same,relative viability,[11]; first compound 0.04 µM,1.03
same,relative viability,[11]; first compound 0.1265 µM,0.924
same,relative viability,[11]; first compound 0.4 µM,0.963
same,relative viability,[11]; first compound 1.265 µM,0.499
same,relative viability,[11]; first compound 4 µM,0.363
CC(=O)O[C@@]12CO[C@@H]1C[C@H](O)[C@@]1(C)C(=O)[C@H](O)C3=C(C)[C@@H](OC(=O)[C@H](O)[C@@H](NC(=O)OC(C)(C)C)c4ccccc4)C[C@@](O)([C@@H](OC(=O)c4ccccc4)[C@H]21)C3(C)C [Docetaxel] + CC1(C)CCC(c2ccc(Cl)cc2)=C(CN2CCN(c3ccc(C(=O)NS(=O)(=O)c4ccc(N[C@H](CCN5CCOCC5)CSc5ccccc5)c(S(=O)(=O)C(F)(F)F)c4)cc3)CC2)C1 [Navitoclax] (partner 0.5 µM),relative viability,[1]; first compound 0.0002 µM,0.997
same,relative viability,[1]; first compound 0.000632 µM,0.219
same,relative viability,[1]; first compound 0.002 µM,0.0187
same,relative viability,[1]; first compound 0.006325 µM,0.0123
same,relative viability,[1]; first compound 0.02 µM,0.0104
same,relative viability,[2]; first compound 0.0002 µM,1.15
same,relative viability,[2]; first compound 0.000632 µM,1.19
same,relative viability,[2]; first compound 0.002 µM,0.892
same,relative viability,[2]; first compound 0.006325 µM,0.575
same,relative viability,[2]; first compound 0.02 µM,0.117
same,relative viability,[3]; first compound 0.0002 µM,0.985
same,relative viability,[3]; first compound 0.000632 µM,0.245
same,relative viability,[3]; first compound 0.002 µM,0.055
same,relative viability,[3]; first compound 0.006325 µM,0.0522
same,relative viability,[3]; first compound 0.02 µM,0.0365
same,relative viability,[6]; first compound 0.0002 µM,1.07
same,relative viability,[6]; first compound 0.000632 µM,0.551
same,relative viability,[6]; first compound 0.006325 µM,0.129
same,relative viability,[6]; first compound 0.02 µM,0.108
same,relative viability,[7]; first compound 0.0002 µM,0.75
same,relative viability,[7]; first compound 0.000632 µM,0.455
same,relative viability,[7]; first compound 0.002 µM,0.244
same,relative viability,[7]; first compound 0.006325 µM,0.242
same,relative viability,[7]; first compound 0.02 µM,0.158
same,relative viability,[8]; first compound 0.0002 µM,0.506
same,relative viability,[8]; first compound 0.000632 µM,0.172
same,relative viability,[8]; first compound 0.002 µM,0.0734
same,relative viability,[8]; first compound 0.006325 µM,0.0267
same,relative viability,[8]; first compound 0.02 µM,0.024
same,relative viability,[9]; first compound 0.0002 µM,0.259
same,relative viability,[9]; first compound 0.000632 µM,0.27
same,relative viability,[9]; first compound 0.002 µM,0.152
same,relative viability,[9]; first compound 0.006325 µM,0.206
same,relative viability,[9]; first compound 0.02 µM,0.124
same,relative viability,[10]; first compound 0.0002 µM,1.02
same,relative viability,[10]; first compound 0.000632 µM,0.707
same,relative viability,[10]; first compound 0.002 µM,0.111
same,relative viability,[10]; first compound 0.006325 µM,0.0836
same,relative viability,[10]; first compound 0.02 µM,0.0609
same,relative viability,[11]; first compound 0.0002 µM,1.05
same,relative viability,[11]; first compound 0.000632 µM,1.03
same,relative viability,[11]; first compound 0.002 µM,0.938
same,relative viability,[11]; first compound 0.006325 µM,0.526
same,relative viability,[11]; first compound 0.02 µM,0.351
Nc1ccn([C@@H]2O[C@H](CO)[C@@H](O)[C@@H]2O)c(=O)n1 [Cytarabine] + CC(C)C[C@H](NC(=O)[C@H](Cc1ccccc1)NC(=O)c1cnccn1)B(O)O [Bortezomib] (partner 0.002 µM),relative viability,[1]; first compound 0.005 µM,0.677
same,relative viability,[1]; first compound 0.01581 µM,0.968
same,relative viability,[1]; first compound 0.05 µM,0.265
same,relative viability,[1]; first compound 0.1581 µM,0.028
same,relative viability,[1]; first compound 0.5 µM,0.0192
same,relative viability,[2]; first compound 0.005 µM,1.05
same,relative viability,[2]; first compound 0.01581 µM,1.03
same,relative viability,[2]; first compound 0.05 µM,0.952
same,relative viability,[2]; first compound 0.1581 µM,0.634
same,relative viability,[2]; first compound 0.5 µM,0.311
same,relative viability,[5]; first compound 0.005 µM,0.997
same,relative viability,[5]; first compound 0.01581 µM,0.667
same,relative viability,[5]; first compound 0.05 µM,0.596
same,relative viability,[5]; first compound 0.1581 µM,0.381
same,relative viability,[5]; first compound 0.5 µM,0.246
same,relative viability,[6]; first compound 0.005 µM,0.321
same,relative viability,[6]; first compound 0.01581 µM,0.172
same,relative viability,[6]; first compound 0.05 µM,0.145
same,relative viability,[6]; first compound 0.1581 µM,0.117
same,relative viability,[6]; first compound 0.5 µM,0.134
same,relative viability,[7]; first compound 0.005 µM,0.569
same,relative viability,[7]; first compound 0.01581 µM,0.444
same,relative viability,[7]; first compound 0.05 µM,0.445
same,relative viability,[7]; first compound 0.1581 µM,0.378
same,relative viability,[7]; first compound 0.5 µM,0.252
same,relative viability,[8]; first compound 0.005 µM,0.739
same,relative viability,[8]; first compound 0.01581 µM,0.663
same,relative viability,[8]; first compound 0.05 µM,0.648
same,relative viability,[8]; first compound 0.1581 µM,0.411
same,relative viability,[8]; first compound 0.5 µM,0.165
same,relative viability,[9]; first compound 0.005 µM,0.543
same,relative viability,[9]; first compound 0.01581 µM,0.49
same,relative viability,[9]; first compound 0.05 µM,0.515
same,relative viability,[9]; first compound 0.1581 µM,0.341
same,relative viability,[9]; first compound 0.5 µM,0.326
same,relative viability,[10]; first compound 0.005 µM,0.864
same,relative viability,[10]; first compound 0.01581 µM,0.794
same,relative viability,[10]; first compound 0.05 µM,0.749
same,relative viability,[10]; first compound 0.1581 µM,0.609
same,relative viability,[10]; first compound 0.5 µM,0.356
same,relative viability,[11]; first compound 0.005 µM,1.01
same,relative viability,[11]; first compound 0.01581 µM,1.09
same,relative viability,[11]; first compound 0.05 µM,1.05
same,relative viability,[11]; first compound 0.1581 µM,1.03
same,relative viability,[11]; first compound 0.5 µM,1
